We go through 39 compounds from patent US20260085073A1, “PYRAZOLYLCARBOXAMIDE COMPOUNDS AND THEIR USE IN THERAPY” (Hotspot Therapeutics, Inc., priority 2022, published 2026).

Each structure is given as a SMILES string. A value given as a limit tells only on which side of the number the result lay.

The test has as its target T1, MALT1 (Homo sapiens, UniProt Q9UDY8).
T1 construct: Avi-tagged FL MALT-1 (Pharmaron, stored at −70° C.); Avi-tag
T1 sequence (Q9UDY8 1-824): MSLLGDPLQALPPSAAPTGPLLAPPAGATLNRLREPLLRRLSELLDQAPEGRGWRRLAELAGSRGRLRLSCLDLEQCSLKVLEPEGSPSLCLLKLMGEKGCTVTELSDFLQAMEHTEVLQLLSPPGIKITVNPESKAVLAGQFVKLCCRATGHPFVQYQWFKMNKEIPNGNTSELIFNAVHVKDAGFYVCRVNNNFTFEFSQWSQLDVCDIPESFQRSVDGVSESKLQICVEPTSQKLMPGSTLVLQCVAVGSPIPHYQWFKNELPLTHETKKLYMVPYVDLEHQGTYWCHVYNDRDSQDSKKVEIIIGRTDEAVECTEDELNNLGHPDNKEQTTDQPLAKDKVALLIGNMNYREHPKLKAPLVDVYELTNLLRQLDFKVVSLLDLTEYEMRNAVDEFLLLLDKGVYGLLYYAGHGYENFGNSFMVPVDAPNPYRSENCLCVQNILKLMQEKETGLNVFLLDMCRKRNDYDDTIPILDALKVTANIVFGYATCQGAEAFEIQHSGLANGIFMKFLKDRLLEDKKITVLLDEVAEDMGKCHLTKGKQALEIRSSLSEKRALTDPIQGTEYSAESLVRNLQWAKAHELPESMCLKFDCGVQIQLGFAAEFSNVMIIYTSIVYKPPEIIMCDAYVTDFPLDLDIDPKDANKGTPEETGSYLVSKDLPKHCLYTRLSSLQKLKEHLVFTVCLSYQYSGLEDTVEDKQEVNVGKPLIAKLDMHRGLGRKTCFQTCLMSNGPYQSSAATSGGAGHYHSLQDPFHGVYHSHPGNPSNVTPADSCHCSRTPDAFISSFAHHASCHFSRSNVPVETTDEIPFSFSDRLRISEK
The test is described as follows: MALT1 inhibition assay (MALT-1 Fluorogenic Peptide Cleavage Assay, Ac-LRSR-AMC substrate). The test is classed as biochemical. The settings on record: Avi-tagged FL MALT-1, 30 min pre-incubation, 90 min reaction at room temperature, fluorescence intensity. The procedure: Example 71—MALT1 Inhibition Assay
Compounds were tested for ability to bind to MALT1.
Inhibition of MALT1 activity by the presence of small molecules was evaluated using MALT-1 Fluorogenic Peptide Cleavage Assay. The assay utilizes a quenched AMC-labelled peptide that contains the MALT-1 recognition sequence and cleavage site (LRSR). MALT-1 mediated cleavage of the peptide relieves the quenching and leads to an increase in fluorescence at excitation (342 nm) and emission (441 nm).
The following reagents were obtained commercially and used to prepare standard reagent formulations as further described below: N-2-hydroxyethylpiperazine-N-2-ethane sulfonic acid (HEPES) (1 M, pH 7.5, stored at 4° C.), sodium citrate (stored at RT), tris(2-carboxyethyl) phosphine hydrochloride (T-CEP) (500 mM, stored at −20° C.), ethylenediaminetetraacetic acid (EDTA) (500 mM, stored at RT), dimethylsulfoxide (DMSO, stored at RT), 3-[(3-cholamidopropyl)dimethylammonio]-1-propane sulphate (CHAPS) (stored at RT), dimethylsulfoxide (DMSO), DMSO (Fisher Scientific, stored at RT), Avi-tagged FL MALT-1 (Pharmaron, stored at −70° C.), Ac-LRSR-AMC Peptide (SM Biochemicals, stored at −20° C.), and ultrapure water (MILLI-QR).
The standard reagent formulations used in this assay were prepared and stored as follows. A 1.1 M solution of sodium citrate (161.3 g, 500 mL) was prepared and stored at room temperature. A 10% (w/v) CHAPS solution (2.0 g, 20 mL) was prepared and stored at 4° C. A 500 mM HEPES solution having pH of 6.89 was prepared from 200 mL of a 1 M HEPES solution having a pH of 7.5 using concentrated hydrochloric acid and brought to a final volume of 400 mL with MILLI-QR H2O. The substrate, 10 mM Ac-LRSR-AMC Peptide, was prepared (10 mg, 1.370 mL DMSO) and stored at −20° C.
Compounds were plated to provide a 2% DMSO final concentration using a ProxiPlate-384 Plus F Black 384-shallow well microplate. The assay-ready plates were equilibrated to room temperature. A reaction buffer (30 mL total volume) was prepared by combining HEPES (pH 6.89, 25 mM, 1.5 mL), sodium citrate (660 mM, 18.0 mL), T-CEP (1 mM, 0.06 mL), EDTA ([…], 0.06 mL), CHAPS (0.05%, 0.15 mL), DMSO (2%, 0.6 mL), and MILLI-QR H2O (10.23 mL; 9.63 mL when backfilled to 2% DMSO) followed by thorough mixing. DMSO was added only when compound plates had not been DMSO-backfilled to 2%.
MALT-1 was thawed and kept on ice. Peptide substrate was thawed on the bench under ambient conditions. A MALT-1 enzyme working stock was prepared from Avi-tagged FL MALT-1 (40 nM in a prepared reagent volume of 16.5 μL) and the reaction buffer (13.0 mL). MALT1 working stock (5 μL) was added to each well of the microplate. MALT-1 was pre-incubated with compounds for 30 minutes at room temperature.
Two substrate working stocks (Km and 10×Km) were prepared. The 1×Km substrate was prepared from Ac-LRSR-AMC Peptide (50 μM in a prepared reagent volume of 35.0 μL) and the reaction buffer (6.965 mL). The 10×Km substrate was prepared from Ac-LRSR-AMC Peptide (280 μM in a prepared reagent volume of 196.0 μL) and the reaction buffer (6.804 mL). The reaction was initiated by the addition of substrate working stock (5 μL, 50 μM) to Km plates and the addition of substrate working stock (5 μL 280 μM) to 10×Km plates. The plates were covered and incubated on the bench at room temperature for 90 minutes.
Fluorescence intensity was determined using a CLARIOstar microplate reader (BMG LABTECH) using the optimised AMC mode. Before taking readings, a 70% gain was applied on the neutral control well. Compound data were normalised to % Inhibition and used to plot sigmoidal concentration response curves to yield various parameters including IC50.
Regarding `Cn1nc(-c2ccc(C#N)cc2Cl)c(C(F)(F)F)c1C(=O)Nc1ccnc(C(F)(F)F)c1` [Compound I-41], the IC50 (as a rule, the concentration at which inhibition is half-maximal) is below 500 nM.

As for `Cn1nc(-c2cncc3sccc23)c(C(F)(F)F)c1C(=O)Nc1ccnc(C(F)(F)F)c1` [Compound I-42, 1-methyl-3-(thieno[2,3-c]pyridin-4-yl)-4-(trifluoromethyl)-N-(2-(trifluoromethyl)pyridin-4-yl)-1H-pyrazole-5-carboxamide], the IC50 is below 500 nM.

`Cn1nc(-c2cccc3c2OCO3)c(C(F)(F)F)c1C(=O)Nc1cnc(-n2nccn2)c(C#N)c1` [Compound I-43] gave a concentration for half-maximal inhibition (IC50) below 500 nM.

As for `Cn1nc(-c2cccc3c2OCCO3)c(C(F)(F)F)c1C(=O)Nc1ccnc(C(F)(F)F)c1` [Compound I-44], the IC50 lay within 500 to 2500 nM.

Regarding `Cn1nc(-c2ccc(F)cc2Cl)c(C(F)(F)F)c1C(=O)Nc1ccnc(C(F)(F)F)c1` [Compound I-45], the IC50 was below 500 nM.

As for `Cn1nc(-c2cccc3[nH]ncc23)c(C(F)(F)F)c1C(=O)Nc1ccnc(C(F)(F)F)c1` [Compound I-46], the concentration for half-maximal inhibition (IC50) lay in the range of 500 to 2500 nM.

As for `Cn1nc(-c2cccc3occc23)c(C(F)(F)F)c1C(=O)Nc1ccnc(C(F)(F)F)c1` [Compound I-47], the 50% inhibitory concentration (IC50) is below 500 nM.

In turn, `Cn1nc(-c2cccn(C)c2=O)c(C(F)(F)F)c1C(=O)Nc1ccnc(C(F)(F)F)c1` [Compound I-48] had an IC50 above 10000 nM.

As for `Cn1nc(-c2c(Cl)ccc3c2OCO3)c(C(F)(F)F)c1C(=O)Nc1ccnc(C(F)(F)F)c1` [Compound I-49], the IC50 was below 500 nM.

`Cn1nc(-c2ccc(F)c3c2OCO3)c(C(F)(F)F)c1C(=O)Nc1ccnc(C(F)(F)F)c1` [Compound I-50] showed a concentration for half-maximal inhibition (IC50) below 500 nM.

Regarding `Cn1nc(-c2cccc3c2OCCN3)c(C(F)(F)F)c1C(=O)Nc1ccnc(C(F)(F)F)c1` [Compound I-51], the 50% inhibitory concentration (IC50) is above 10000 nM.

On to `COc1cccc(-c2nn(C)c(C(=O)Nc3ccnc(C(F)(F)F)c3)c2C(F)(F)F)c1OC` [Compound I-52], for which the IC50 was in the range of 500 to 2500 nM.

The compound `Cn1nc(-c2cccc3c2NCCO3)c(C(F)(F)F)c1C(=O)Nc1ccnc(C(F)(F)F)c1` [Compound I-54] came in with an IC50 of 500 to 2500 nM.

`Cc1ccc2ncccc2c1-c1nn(C)c(C(=O)Nc2ccnc(C(F)(F)F)c2)c1C(F)(F)F` [Compound I-55] returned an IC50 of 500 to 2500 nM.

`Cn1nc(-c2cccc3c2ccn3C)c(C(F)(F)F)c1C(=O)Nc1ccnc(C(F)(F)F)c1` [Compound I-56]: the half-maximal inhibitory concentration (IC50) was 500 to 2500 nM.

As to `Cn1nc(-c2cccc3c2ccn3CC(=O)O)c(C(F)(F)F)c1C(=O)Nc1ccnc(C(F)(F)F)c1` [Compound I-57], the 50% inhibitory concentration (IC50) was above 10000 nM.

As for `Cn1nc(-c2cccc3ncccc23)c(C(F)(F)F)c1C(=O)Nc1cnc(-n2nccn2)c(Cl)c1` [Compound I-58], the 50% inhibitory concentration (IC50) is below 500 nM.

For `Cn1nc(-c2ccccc2Cl)c(C(F)(F)F)c1C(=O)Nc1ccnc(C(F)(F)F)c1` [Compound I-59], the concentration for half-maximal inhibition (IC50) was below 500 nM.

For the compound `Cn1nc(-c2cccc3ncsc23)c(C(F)(F)F)c1C(=O)Nc1ccnc(C(F)(F)F)c1` [Compound I-60], the IC50 is below 500 nM.

Turning to `Cn1nc(-c2cccc3cnn(C)c23)c(C(F)(F)F)c1C(=O)Nc1ccnc(C(F)(F)F)c1` [Compound I-61], the IC50 lay within 500 to 2500 nM.

For the compound `Cn1cc2c(-c3nn(C)c(C(=O)Nc4ccnc(C(F)(F)F)c4)c3C(F)(F)F)cccc2n1` [Compound I-62], the IC50 fell in the range of 2500 to 10000 nM.

With `Cn1nc(-c2cccc3c(=O)[nH]ccc23)c(C(F)(F)F)c1C(=O)Nc1ccnc(C(F)(F)F)c1` [Compound I-63], the IC50 is below 500 nM.

In the case of `Cn1nc(-c2cccn3ncnc23)c(C(F)(F)F)c1C(=O)Nc1ccnc(C(F)(F)F)c1` [Compound I-64], the IC50 was 500 to 2500 nM.

As for `Cn1nc(-c2cccc3c2CNC3=O)c(C(F)(F)F)c1C(=O)Nc1ccnc(C(F)(F)F)c1` [Compound I-65], the half-inhibitory concentration (IC50) was below 500 nM.

For `Cn1nc(-c2ccnc3ccsc23)c(C(F)(F)F)c1C(=O)Nc1ccnc(C(F)(F)F)c1` [Compound I-66], the IC50 lay in the range of 500 to 2500 nM.

As to `Cn1nc(-c2cccc3cnsc23)c(C(F)(F)F)c1C(=O)Nc1ccnc(C(F)(F)F)c1` [Compound I-67], the IC50 is above 10000 nM.

`COc1cccc(-c2nn(C)c(C(=O)Nc3ccnc(C(F)(F)F)c3)c2C(F)(F)F)c1Cl` [Compound I-68] gave an IC50 of 500 to 2500 nM.

With `Cn1nc(-c2cnn3ccccc23)c(C(F)(F)F)c1C(=O)Nc1ccnc(C(F)(F)F)c1` [Compound I-69], the half-maximal inhibitory concentration (IC50) fell in the range of 2500 to 10000 nM.

Compound `Cn1nc(-c2cncc(C#N)c2)c(C(F)(F)F)c1C(=O)Nc1ccnc(C(F)(F)F)c1` [Compound I-70] yielded an IC50 above 10000 nM.

`Cn1nc(-c2cnc3n2CCOC3)c(C(F)(F)F)c1C(=O)Nc1ccnc(C(F)(F)F)c1` [Compound I-71] came in with an IC50 above 10000 nM.

In turn, `Cn1nc(-c2ccnc3c2OCO3)c(C(F)(F)F)c1C(=O)Nc1ccnc(C(F)(F)F)c1` [Compound I-72] displayed a concentration for half-maximal inhibition (IC50) of 500 to 2500 nM.

`Cn1nc(-c2csc3ccncc23)c(C(F)(F)F)c1C(=O)Nc1ccnc(C(F)(F)F)c1` [Compound I-73] showed a 50% inhibitory concentration (IC50) of 500 to 2500 nM.

In the case of `Cn1nc(-c2cnn3ccncc23)c(C(F)(F)F)c1C(=O)Nc1ccnc(C(F)(F)F)c1` [Compound I-74], the IC50 is above 10000 nM.

Regarding `Cn1nc(-c2cc(O)ccc2Cl)c(C(F)(F)F)c1C(=O)Nc1ccnc(C(F)(F)F)c1` [Compound I-75], the IC50 lay in the range of 500 to 2500 nM.

As for `CN(C)c1cc(-c2nn(C)c(C(=O)Nc3ccnc(C(F)(F)F)c3)c2C(F)(F)F)ccn1` [Compound I-76], the half-inhibitory concentration (IC50) is above 10000 nM.

Regarding `Cn1nc(-c2cnc(N)c3ccccc23)c(C(F)(F)F)c1C(=O)Nc1ccnc(C(F)(F)F)c1` [Compound I-77], the IC50 is 500 to 2500 nM.

Regarding `Cn1nc(-c2cccc3c(N)nccc23)c(C(F)(F)F)c1C(=O)Nc1ccnc(C(F)(F)F)c1` [Compound I-78], the 50% inhibitory concentration (IC50) was above 10000 nM.

Compound `Cc1ncccc1-c1nn(C)c(C(=O)Nc2ccnc(C(F)(F)F)c2)c1C(F)(F)F` [Compound I-79] showed an IC50 of 2500 to 10000 nM.

In the case of `Cc1cncc(-c2nn(C)c(C(=O)Nc3ccnc(C(F)(F)F)c3)c2C(F)(F)F)c1` [Compound I-80], the 50% inhibitory concentration (IC50) is above 10000 nM.
